System: endonucleolytically active site of the Influenza A 2009 pandemic H1N1 PA subunit polypeptide fragment or variant thereof
Assay: Co-crystallisation / X-ray structure: binding to the endonucleolytically active site
Set-up: species or system Influenza A 2009 pandemic H1N1 virus

SMILES	ability to bind to the endonucleolytically active site
O=C(O[C@@H]1Cc2c(O)cc(O)cc2O[C@@H]1c1cc(O)c(O)c(O)c1)c1cc(O)c(O)c(O)c1 [EGCG, [(2R,3R)-5,7-dihydroxy-2-(3,4,5-trihydroxyphenyl)chroman-3-yl]3,4,5-trihydroxybenzoate]	able to bind to the endonucleolytically active site
O=C(O)/C(O)=C/C(=O)C1(Cc2ccc(Cl)cc2)CCN(CC2CCCCC2)CC1 [EMBL-R05-2, 4-[4-[(4-chlorophenyl)methyl]-1-(cyclohexylmethyl)-4-piperidinyl]-2-hydroxy-4-oxo-2-butenoic acid]	able to bind to the endonucleolytically active site
O=C(O)/C(O)=C/C(=O)C1(Cc2ccc(Cl)cc2)CCCN(Cc2ccccc2)C1 (stereo not drawn) [EMBL-R05-3, 4-[3-[(4-chlorophenyl)methyl]-1-(phenylmethyl)-3-piperidinyl]-2-hydroxy-4-oxo-2-butenoic acid]	able to bind to the endonucleolytically active site

— patent publication US9181307B2, “Influenza A 2009 pandemic H1N1 polypeptide fragments comprising endonuclease activity and their use” (priority 2010, dated 2015)
